Consider two compounds from BindingDB's records for doi:10.7270/Q22V2DK6 (The Scripps Research Institute Molecular Screening Center, 2010).

A value given as a limit tells only on which side of the number the result lay.

For the experiment, the target named is T1, Caspase-7 (Homo sapiens, UniProt P55210).
T1 sequence (P55210 whole entry): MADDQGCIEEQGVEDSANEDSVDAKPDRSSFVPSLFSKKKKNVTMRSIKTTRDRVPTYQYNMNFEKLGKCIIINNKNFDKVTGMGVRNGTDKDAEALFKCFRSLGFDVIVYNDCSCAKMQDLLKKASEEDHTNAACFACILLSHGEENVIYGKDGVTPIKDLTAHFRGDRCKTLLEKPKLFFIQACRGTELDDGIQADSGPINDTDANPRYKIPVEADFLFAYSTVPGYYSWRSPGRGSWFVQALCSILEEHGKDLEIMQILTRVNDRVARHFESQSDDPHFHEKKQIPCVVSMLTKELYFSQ
The experiment is described as follows: procaspase-7 activators, dose response, counter-screen for procaspase-3 activator project, biochemical, absorbance (AID 489013). On the technique in general: A counterscreen serves to expose hits that act by an unwanted route or on another target.

Usually EC50 stands for the concentration giving half of the maximal effect. Low readings indicate higher potency in that assay, high ones lower potency in that assay. In the case of `O=C(CC1=NC2(CCCC2)Cc2ccccc21)C(=O)NN=Cc1ccccc1O` [SMR000219463], the EC50 is over 85.3 µM.

In the case of `O=c1c2c(-c3ccccc3)[nH]n(-c3ccccc3)c-2c(O)n1-c1ccccc1` [SMR000269383], the EC50 is over 85.3 µM.
